Source: patent US9796777B2, “Methods of treating malignant tumors” (Canimguide Therapeutics AB, priority 2007, dated 2017)

What was measured:
[1] = system: PBMC; experiment: LPS-induced IL-6 production by PBMC, effect of peptides; type: cell-based, human
Protocol: 100 μl of culture medium consisting of RPMI1640 supplemented with 200 IU/ml penicillin, 200 μg/ml streptomycin, 4 mM L-glutamine (Sigma Chemical, Mo., US) and 20% fresh heat-inactivated autologous serum were added to un-coated or -pre-coated microtiter plates followed by 100 μl of PBMC suspension (5×10^4 lymphocytes) in RPMI/2% HSA with peptides at the indicated concentrations. Lipoplysaccharide (LPS, Sigma Chemical Co, MO, US) was added at a final concentration of 0.05 ng/ml. […] All assay conditions were set up in triplicate wells. Supernatants (SNs) were harvested after 24 hrs and residual cells were removed by centrifugation in a refrigerated centrifuge (Beckman) at 2600×g for 5 minutes. SNs were frozen and stored at −70° C. IL-6 in cell culture SNs was measured by ELISA using the DuoSet® ELISA development kit for human IL-6 (R&D Systems Europe, Ltd., Abingdon, UK) following the manufacturer's recommended procedures. The lower limit of detection was 3.1 pg/ml. Samples were analysed as mean of triplicate wells.

[2] = system: PBMC; experiment: IL-2 induced proliferation of PBMC with albumin peptides in coated and uncoated tissue culture plates; type: cell-based, human; conditions: PBMC from healthy individuals; peptide 5 μg/ml final; 7 days
Protocol: A mixture of 1 mg/ml IgG in a solution of 9 mg/ml HSA in RPMI (HSA/IgG) was also prepared. 200 μl of HSA or HSA/IgG were then added to each well of the plate. The plates were incubated at 4° C. for 30 minutes after which the wells were washed twice with 200 μl of RPMI1640. The coated plates were used immediately. […] PBMC, isolated from healthy individuals, were diluted in RPMI/2% HSA and peptides were added directly to the cell suspension at a concentration of 10 μg/ml.

[3] = system: natural killer (NK) cells; experiment: Cytotoxic activity of natural killer (NK) cells against K562 (NKTEST, flow cytometry); type: cell-based, human; conditions: four healthy donors; peptides 10 ug/ml; effector:target ratio 40:1
Protocol: Mononuclear cells were separated by standard Ficoll-paque Plus (Pharmacia AB, Sweden) density gradient centrifugation from heparinized blood obtained from healthy donors. NK cell cytotoxic activity of the mononuclear cells was then tested using a commercial kit (NKTEST, Orpegen Pharma GmbH, Heidelberg, Germany) following the manufacturers protocol. Briefly, the kit contains cryopreserved, NK-sensitive target cells (K562) labelled with a lipophilic green fluorescent membrane dye, which enables discrimination of effector and target cells. After incubation with effector cells, killed target cells are identified by a DNA-stain, which penetrates and specifically stain the nuclei of dead target cells. This way the percentage of killed targets can be determined by flow cytometry. The mononuclear cells were pre-incubated for 30 min at 37° C. with the indicated peptides (peptides have been described previously) at 10 ug/ml. Target cells were then added, giving an effector:target ratio of 40:1, and the cell mixture incubated at 37° C. for 3-4 hours. Samples were analysed on a FACSCalibur (BD Biosciences, San Jose, Calif.).

[4] = system: PBMCs; experiment: PHA-induced proliferation of PBMC in the presence of albumin peptides and/or dHSA; type: cell-based, human; conditions: PBMCs from two healthy controls; two PHA concentrations
Text: Venous blood was drawn from healthy volunteers or from cancer patients in glass vacuum tubes with acid dextrose citrate solution A as anti-coagulant (Vacutainer, Becton Dickinson, Franklin Lakes, N.J.). Erythrocytes were removed by sedimentation on 2% dextran T500 solution (Amersham Pharmacia Biotech AB, Uppsala, Sweden) in 0.9% NaCl (this step was omitted for cultures with PHA-stimulation-see below). […] For cell cultures with PHA-stimulation, PBMC were washed in Hank's Balanced Salt Solution (HBSS) with 10% autologous plasma instead of RPMI/2% HSA. […] The cell suspension was stained with Turk's solution and the number of lymphocytes and monocytes in the PBMC preparation were counted in a hemocytometer. PBMCs were suspended in RPMI/2% HSA and the cell concentration adjusted to 5×10^5 lymphocytes/ml.
100 μl of the cell suspension were seeded into round-bottomed microtiter plates (Corning, N.Y., USA) followed by 100 μl of culture medium consisting of RPMI 1640 (Flow Laboratories, Irvine, Scotland) supplemented with 200 IU/ml Penicillin, 200 μg/ml Streptomycin (Flow laboratories) and 20% heat inactivated autologous serum. Phytohemagglutinin (PHA-P, Sigma Chemical Co, St. Louis, Mo.) at a final concentration of 5 or 10 μg/ml was then added.
All culture conditions were set up in triplicate wells. […] Mean values of disintegrations per minute (dpm) of triplicates were used for the calculations.

[5] = molecular target: T1, β2-integrin LFA-1 (CD11a) (Homo sapiens, UniProt P20701); experiment: Immunocytochemical staining of PBMC and THP-1 with anti-integrin (CD11a) antibody with or without albumin peptides; type: binding; conditions: for binding to LFA-1: Table 9 summary; for effect on binding of the LFA-1 antibody (HI 111) to LFA-1: mononuclear blood cells
T1 construct: endogenous in cells; host or cells: human PBMC (healthy controls, cancer patients) and THP-1 monocytic cell line (ATCC)
Protocol: Cytospin preparations of mononuclear blood cells from healthy controls, cancer patients and a monocytic cell line, THP-1, were prepared (as described under materials and methods), dried and stored at −70° C. In the immunocytological staining, unspecific staining was blocked by incubation with 10% human AB serum. Some of the slides were preincubated for 60 minutes with albumin peptides at a concentration of 40 μg/ml, added to this 10% AB serum, as indicated in the FIG. 8 A-F. The staining procedure was then continued as described in material and methods. The staining intensity of slides stained with and without preincubation with the peptides was recorded semi quantitatively using a standard light microscope.
PBMC were separated as described above. Cultured THP-1 cells (obtained from the American Type Culture Collection through LGL Nordic AB, Sweden) were carefully washed and suspended in RPMI1640. PBMC and THP-1 were immediately spun down on pre-cleaned microscope slides in a Shandon Cytospin (Shandon Scientific Ltd, UK) at 1000 RPM for 7 min at 2.5 or 5×10^4 cells per slide. The slides were left to dry at room temperature over night, after which they were wrapped in parafilm and stored at −70° C. Immediately before use, the cytospins were thawed and fixed with acetone for 5 min at room temperature. The cytospins were first blocked with 10% normal human AB-serum with and without albumin peptides (40 ␣g/ml) for 1 h before staining. Primary antibody, consisting of a monoclonal mouse anti-human CD11a (clone HI111, BD Biosciences) diluted in Tris buffered saline (TBS, pH 7.6) at 5 μg/ml (THP-1) or 1 µg/ml (PBMC), was added. The slides were incubated for 30 min and then washed in TBS followed by Envision-Alkaline Phosphatase (Dako Norden A/S, Denmark) for 30 min. After additional washing in TBS, the slides were incubated in alkaline phoshatase substrate consisting of Fast Red TR salt (Sigma), naphtol AS-MX (Sigma) and 5 mM levamisol (Sigma) to block endogenous alkaline phosphatase activity, for 20 min followed by washing in TBS. They were then counterstained in Mayer's haematoxylin for 1 minute and mounted in Glycergel (Dako Norden NS). Monoclonal mouse IgG1 against an irrelevant antigen (Aspergillus niger glukosoxidase, Dako Norden NS) was used as a negative control. All incubations were performed at room temperature in a moist chamber.
FIG. 24. Inhibition of the binding of anti-LFA-1, mab HI111, to mononuclear blood cells by 3028 peptide and fragments 3325 and 3218. A standard immunohistochemical staining procedure using acetone fixation, 10% human AB-serum for blocking, incubation with HI 111 and a secondary antibody (Ultravision, an alkaline phosphate conjugated polymer attached to Fab-fragments of goat anti-mouse Ig), followed by development with Fast Red. The slides were then mounted in Glycergel. Preincubation with peptides added to the AB serum was as follows: A. No peptide added, B. peptide 3028, C. The C-terminal part (3218), and D. The N-terminal part (3325).

[6] = system: PBMC; experiment: Human ex vivo model: IL-2 induced proliferation of PBMC in the presence of albumin peptides; conditions: alone or in combination
[7] = system: rabbit anti-3028; experiment: Inhibition of rabbit anti-3028 ELISA by albumin peptides; type: binding; conditions: Table 9 summary
Protocol: To test if albumin peptides inhibited the binding of the rabbit anti-3028 to 3028 coated wells, rabbit antisera, diluted 1/1000 000 in ELISA reagent diluent, was pre-incubated for 1 hr at room temperature with the indicated concentrations of the peptides. 100 μl of the […], or, alternatively, the monoclonal antibody mixed with peptides, was then added to 3028 coated wells and the ELISA carried out as described.

T1 sequence (P20701 26-1170): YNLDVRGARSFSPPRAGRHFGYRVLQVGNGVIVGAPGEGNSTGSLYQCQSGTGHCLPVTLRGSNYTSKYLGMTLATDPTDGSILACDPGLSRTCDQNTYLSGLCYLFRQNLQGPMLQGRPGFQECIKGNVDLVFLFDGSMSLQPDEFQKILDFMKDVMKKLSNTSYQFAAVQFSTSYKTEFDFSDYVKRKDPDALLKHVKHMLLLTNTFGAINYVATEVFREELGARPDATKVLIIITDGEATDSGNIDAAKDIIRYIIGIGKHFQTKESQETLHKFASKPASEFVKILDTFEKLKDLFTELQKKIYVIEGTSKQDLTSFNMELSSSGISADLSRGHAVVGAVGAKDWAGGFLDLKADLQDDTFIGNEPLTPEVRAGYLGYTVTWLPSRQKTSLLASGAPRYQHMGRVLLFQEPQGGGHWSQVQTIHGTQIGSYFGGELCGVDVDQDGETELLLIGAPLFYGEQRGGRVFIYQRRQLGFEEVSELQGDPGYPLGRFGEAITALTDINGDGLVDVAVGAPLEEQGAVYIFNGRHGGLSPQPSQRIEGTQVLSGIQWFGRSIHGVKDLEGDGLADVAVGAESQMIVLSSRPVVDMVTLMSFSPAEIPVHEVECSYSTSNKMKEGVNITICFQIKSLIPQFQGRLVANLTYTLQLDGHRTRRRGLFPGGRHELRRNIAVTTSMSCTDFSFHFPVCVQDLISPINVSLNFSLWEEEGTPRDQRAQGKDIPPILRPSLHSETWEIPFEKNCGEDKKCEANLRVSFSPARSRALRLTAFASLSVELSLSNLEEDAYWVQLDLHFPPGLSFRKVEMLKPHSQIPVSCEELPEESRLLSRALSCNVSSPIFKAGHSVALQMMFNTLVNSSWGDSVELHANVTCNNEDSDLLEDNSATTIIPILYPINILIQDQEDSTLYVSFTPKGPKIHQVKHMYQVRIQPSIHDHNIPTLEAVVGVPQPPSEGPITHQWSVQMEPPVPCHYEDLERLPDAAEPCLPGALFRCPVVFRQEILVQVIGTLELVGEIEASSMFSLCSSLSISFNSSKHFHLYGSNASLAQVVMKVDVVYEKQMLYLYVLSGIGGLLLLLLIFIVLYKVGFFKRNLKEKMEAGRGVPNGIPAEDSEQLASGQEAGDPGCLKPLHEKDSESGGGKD
T1 sequence (P05107 23-769 partner): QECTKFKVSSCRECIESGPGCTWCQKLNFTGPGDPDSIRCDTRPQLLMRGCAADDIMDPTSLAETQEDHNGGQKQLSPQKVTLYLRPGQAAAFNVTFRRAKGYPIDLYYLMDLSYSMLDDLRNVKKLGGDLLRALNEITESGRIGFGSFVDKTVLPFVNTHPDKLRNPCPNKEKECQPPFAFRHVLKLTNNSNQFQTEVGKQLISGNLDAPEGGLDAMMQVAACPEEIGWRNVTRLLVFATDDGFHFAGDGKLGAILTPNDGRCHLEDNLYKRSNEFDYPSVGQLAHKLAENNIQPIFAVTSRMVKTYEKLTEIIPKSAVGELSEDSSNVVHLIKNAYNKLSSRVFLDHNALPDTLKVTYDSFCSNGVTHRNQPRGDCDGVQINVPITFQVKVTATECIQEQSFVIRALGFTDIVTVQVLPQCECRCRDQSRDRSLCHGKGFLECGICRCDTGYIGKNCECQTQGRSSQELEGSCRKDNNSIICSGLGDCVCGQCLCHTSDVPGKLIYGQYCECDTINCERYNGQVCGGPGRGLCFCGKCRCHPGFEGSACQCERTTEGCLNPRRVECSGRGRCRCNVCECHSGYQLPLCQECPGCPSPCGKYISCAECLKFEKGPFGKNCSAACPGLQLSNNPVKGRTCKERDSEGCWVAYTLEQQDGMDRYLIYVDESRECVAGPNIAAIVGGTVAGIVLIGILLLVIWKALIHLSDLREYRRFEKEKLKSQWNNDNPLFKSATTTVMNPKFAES

Question: Which “effect on LPS induced IL-6 production” value ([1]; melanoma patients) does the source give for ELFEQLGEYKFQNALLVR [peptide 3027] here?
Answer: stimulated one of the melanoma patients

Question: What about the “effect on LPS induced IL-6 production” value ([1]; renal cell carcinoma patient) of the same substance?
Answer: stimulatory effect

Question: And the “effect on LPS induced IL-6 production” value ([1]; two healthy controls)?
Answer: slightly stimulatory in one of the controls and had an inhibitory effect in the other

Question: And the “effect on IL-2 induced proliferation” value [2]?
Answer: no statistically significant activity

Question: What about the “effect on percent specific lysis of K562 target cells” value [3] of the same substance?
Answer: Inhibition was not seen

Question: NEETFLKKYLYEIARRHPYFYAP [peptide 3026] was tested. Which “effect on LPS induced IL-6 production” value ([1]; healthy control PBMC1) did it give?
Answer: clear biphasic effect

Question: What about the “effect on LPS induced IL-6 production” value ([1]; healthy control PBMC 2) of the same substance?
Answer: no certain effect

Question: And the “effect on LPS induced IL-6 production” value ([1]; renal cell carcinoma patient)?
Answer: stimulatory effect

Question: And the “effect on IL-2 induced proliferation” value [2]?
Answer: no statistically significant activity

Question: What about the “effect on dHSA modulated PHA stimulated proliferation” value [4] of the same substance?
Answer: inhibited the stimulatory activity of dHSA

Question: For VFDEFKPLVE [peptide 3325], which “binding to LFA-1” value [5] is on record?
Answer: Weak binding

Question: What about the “effect on binding of the LFA-1 antibody (HI 111) to LFA-1” value [5] of the same substance?
Answer: inhibit the binding of mAb HI 111 to LFA-1

Question: What about the “neutralisation of the inhibitory effect of peptide 3028 on IL-2 induced proliferation” value [6] of the same substance?
Answer: not neutralised

Question: What does the source list for “peptide 3218: C-terminal part of peptide 3028 (EPQNLIK)”?
Answer: binding to LFA-1 [5]: Weak binding; effect on binding of the LFA-1 antibody (HI 111) to LFA-1 [5]: inhibit the binding of mAb HI 111 to LFA-1; binding to affinity purified antibodies [7]: Does not bind; neutralisation of the inhibitory effect of peptide 3028 on IL-2 induced proliferation [6]: not neutralised
